Experimental data reported in patent publication US10561629B2, “Food containing glycine and use thereof” (AJINOMOTO CO., INC., priority 2004, dated 2020).
Read-outs that look alike come from different tables or passages of the source.

Legend:
[1] = test participant A, in water before bed
Text: The test participant A (body weight 45 kg) took glycine (substantially pure powder) in an amount shown in Table 6 before going to bed by dissolving same in water, and recorded the level of realization of deep sleep. When the realization of deep sleep increased than usual, “+” was marked, when the realization of deep sleep was almost the same as usual, “±” was marked and when it became worse, “−” was marked.

[2] = one participant, 1.0-1.5 g tablet glycine, trip to East Coast USA, vs previous similar trips
Text: In the Figure, glycine (substantially pure tablet glycine containing only excipient and flavor) was taken at the time point marked with an arrow, wherein 1.0 g was taken on “June 20” and “June 21” and 1.5 g was taken on “June 22”-“June 26” and “June 29”.

[3] = Protocol: A double-blind crossover test aiming at confirmation of the effect of glycine on sleep was performed with 14 male adults (body weight 64-112.5 kg, average 81.2 kg) concerned about snoring and apnea condition during sleep. The test participants took glycine (granules containing citric acid and the like) in an amount equivalent to 3 g of glycine 1 hr before bedtime, and reduced maltose containing components other than glycine (citric acid and the like) and adjusted to an almost indistinguishable taste was used as a placebo.
In addition, the sleep condition of the night before was examined on waking using the sleep questionnaire.

[4] = for mental condition on waking: improved in comparison with placebo / mental condition on waking: no change in comparison with placebo / mental condition on waking: worsened in comparison with placebo / physical condition on waking: improved in comparison with placebo / physical condition on waking: no change in comparison with placebo / physical condition on waking: worsened in comparison with placebo: 3 g 1 hr before bedtime
Protocol: A double-blind crossover test aiming at confirmation of the effect of glycine on sleep was performed with 15 female adults (20s-50s, body weight 46-58 kg). The test participants took glycine (granule containing citric acid and the like) in an amount equivalent to 3 g of glycine 1 hr before bedtime, and reduced maltose containing components other than glycine (citric acid and the like) and adjusted to an almost indistinguishable taste was used as a placebo. For the test, glycine and placebo were each taken for 4 days with an interval of a 3 day non-intake period, totaling 2 weeks.
In the Table, the values of glycine and placebo show the test participant average of the points of evaluation in 8 levels in the sleep questionnaire “depth of sleep”. […] In addition, the p value is a statistical value showing the probability when the difference between glycine and placebo was hypothesized to be null. Particularly, this value of 0.05 or below is considered to indicate a significant difference.
(4) At the end of each 1 week test period, a question was asked about the soundness of sleep.

[5] = remark: listed apart in the source
Text: Table 5 reports the bowel movements on the next morning and the corresponding number of days.

[6] = 3 g 30 min before bedtime, next daytime, mean ± standard error
Protocol: A single-blind crossover study aimed at confirmation of the effect of glycine on sleep was performed with 7 male adults (30s-40s, body weight 62-79 kg). The test participants took glycine (granule containing citric acid and the like) in an amount equivalent to 3 g of glycine 30 min before bedtime, and reduced maltose containing components other than glycine (citric acid and the like) and adjusted to an almost indistinguishable taste was used as a placebo. The sleep hours on the day of administration was limited to about 75% (5-6.5 hr) of comfortable sleep hours each test participant voluntarily notified, and a nap was prohibited until the end of the administration. For the test, glycine and placebo were each taken for 3 days with an interval of a 14-21 day non-intake period, totaling 4-5 weeks. Of the 3 days, the following investigation and measurement were performed at 10 o'clock, 14 o'clock and 18 o'clock of the next day of the first day of the intake.
(2) To evaluate the cognitive and psychomotor function as a reflection of the quality of sleep, an operation efficiency test using a computer was performed. As a three kind discrimination response task, a task of responding to only one predetermined kind from randomly designed three kinds of graphics on the screen was given.

[7] = participants 32 years old or older (6)
[8] = participants with PSQI not less than 9 (7)
[9] = SAM lassitude check list, 4-day total, difference by 1 point or more vs placebo, 15 participants
[10] = SAM lassitude check list, 4-day total, difference by 4 points or more vs placebo, 15 participants
[11] = out of 15 participants, end of each 1 week test period
[12] = participants 32 years old or older
[13] = test participant A, tablet intake (1 g) before bed
[14] = test participant B, intake (3 g) with yoghurt before bed
[15] = test participant B, powder intake (3 g) before bed

SMILES: NCC(=O)O [glycine, Glycine]
- Realization of deep sleep ([1]; 1/1 teaspoon, general amount 2.5 g): +
- Realization of deep sleep ([1]; ¼ teaspoon, general amount 0.6 g): +
- Realization of deep sleep ([1]; ½ teaspoon, general amount 1.2 g): +
- arousal during sleep [2]: reduced or eliminated arousal during sleep
- OSA sleep questionnaire point value, time of dozing off ([3]; participant average of 4 levels (0, 11, 19, 30 points), higher = shorter dozing, placebo 19.6): 24.9
- OSA sleep questionnaire point value, depth of sleep ([3]; participant average of 4 levels (0, 11, 21, 32 points), higher = deeper, placebo 12.3): 16.7
- mental condition on waking: improved in comparison with placebo [4, 7]: 5 person
- mental condition on waking: no change in comparison with placebo [4, 7]: 1 person
- mental condition on waking: worsened in comparison with placebo [4, 7]: 0 person
- physical condition on waking: improved in comparison with placebo [4, 7]: 5 person
- physical condition on waking: no change in comparison with placebo [4, 7]: 1 person
- physical condition on waking: worsened in comparison with placebo [4, 7]: 0 person
- mental condition on waking: improved in comparison with placebo [4, 8]: 5 person
- mental condition on waking: no change in comparison with placebo [4, 8]: 2 person
- mental condition on waking: worsened in comparison with placebo [4, 8]: 0 person
- physical condition on waking: improved in comparison with placebo [4, 8]: 5 person
- physical condition on waking: no change in comparison with placebo [4, 8]: 1 person
- physical condition on waking: worsened in comparison with placebo [4, 8]: 1 person
- Increase of lassitude on waking, effective criterion [4, 9]: 3 participants
- No change of lassitude on waking, effective criterion [4, 9]: 1 participants
- Reduction of lassitude on waking, effective [4, 9]: 11 participants
- Increase of lassitude on waking, remarkably effective criterion [4, 10]: 2 participants
- No change of lassitude on waking, remarkably effective criterion [4, 10]: 6 participants
- Reduction of lassitude on waking, remarkably effective [4, 10]: 7 participants
- Sleep questionnaire "depth of sleep" ([4]; average points, 8 levels, participants 32 years old or older, placebo 4.13, P value 0.042): 4.88
- soundness of sleep: participants answering that both were the same [4, 11]: 8 participants
- soundness of sleep: participants answering the week of glycine intake was fine [4, 11]: 6 participants
- soundness of sleep: participants answering the week of placebo intake was fine [4, 11]: one
- Effect of clearing head the next morning: effective in comparison with placebo [4, 12]: 5 person
- Effect of clearing head the next morning: no change in comparison with placebo [4, 12]: 1 person
- Effect of clearing head the next morning: worsened in comparison with placebo [4, 12]: 0 person
- No bowel movement (next morning) [5, 13]: 2 days
- Presence of bowel movement (next morning) [5, 13]: 10 days
- No bowel movement (next morning) [5, 14]: 0 days
- Presence of bowel movement (next morning) [5, 14]: 4 days
- No bowel movement (next morning) [5, 15]: 1 days
- Presence of bowel movement (next morning) [5, 15]: 7 days
- Response time ([6]; placebo 0.393 ± 0.025, p value 0.028): 0.366 ± 0.021 s
- Lapse (number of response where reaction time was 500 msec or longer) ([6]; placebo 2.67 ± 3.06, p value 0.017): 1.19 ± 1.69 times
- percentage of correct answer ([6]; placebo 95.6 ± 5.20, p value 0.043): 98.4 ± 1.16%
